Experiments:
[1] = test system: patients having hormone refractory prostate cancer (HRPCa); experiment: Area under the Curve (AUC) analysis of health-related QoL domain scores, one year follow-up assumed; format: in vivo, human
Text: The Kaplan-Meier product limit method may provide biased results if study data are obtained under certain conditions such as staggered entry of subjects into the study and/or incomplete follow-up (Biometrics. 1989; 5:781-795). Thus, a second analysis was implemented to verify that the conclusions derived from the Kaplan-Meier method would remain robust to the length of follow-up. The assumption was that all patients were followed for one year. Patients who discontinued from the study prior to one year of observation had their last observation for all health-related QoL domains carried forward through the remainder of the year. Similarly, patients who had not completed one year of observation had their health-related QoL data carried forward through one year. If the patient experienced a clinical event within the one year period, the last observation was not carried forward. The Area under the Curve (AUC) value for each domain was computed by multiplying the health-related QoL domain score by the respective duration of that score. Finally, AUC values were aggregated across all subjects within each respective treatment group (atrasentan (10 mg), atrasentan (2.5 mg), and placebo). Aggregated AUC values for each domain were compared for differences between treatment groups using a t-test.

[2] = test system: patients having hormone refractory prostate cancer (HRPCa); experiment: Time to disease or PSA progression across treatment groups; format: in vivo, human; details: intent-to-treat population
Method: Patients received treatment with 10 mg (N=89) or 2.5 mg (N=95) of atrasentan or placebo (N=104) until experiencing a clinical event indicative of disease progression such as palliative opiate treatment of new bone or visceral pain, palliative radiation treatment of new bone pain, or new tumor growth symptoms requiring intervention or treatment with chemotherapy.

Structure (SMILES): CCCCN(CCCC)C(=O)CN1C[C@H](c2ccc3c(c2)OCO3)[C@@H](C(=O)O)[C@@H]1c1ccc(OC)cc1 [atrasentan, (2R,3R,4S)-2-(4-methoxyphenyl)-4-(1,3-benzodioxol-5-yl)-1-(((N,N-dibutylamino)carbonyl)methyl)pyrrolidine-3-carboxylic acid]
- AUC results ([1]; 2.5 mg, except for dyspnea, social/family, functional well-being, and FACT-P domain scores): significantly improved
- AUC analysis, responses in the 10 mg and 2.5 mg treatment groups ([1]; 10 mg vs 2.5 mg): not statistically differentiable
- AUC analysis, atrasentan treatment vs placebo groups ([1]; Intent to Treat population): no statistical differences
- AUC analysis vs placebo ([1]; per-protocol population, every health-related QoL domain score): strong trends in favor
- AUC for the health-related QoL domain scores ([1]; physical functioning, social functioning, and pain, p<0.05): significantly longer
- differences in either the time to disease or PSA progression across treatment groups [2]: no statistically significant differences

From patent publication US20030092757A1, “Favorable modulation of health-related quality of life and health-related quality-adjusted time-to-progression of disease in patients with prostate cancer” (priority 2001, published 2003)
